According to PubChem BioAssay AID2060508 (Molecular Pharmacology Branch, DTP, NCI, 2025):
pIC50: −log10 of the molar value. “And” between values parts separate entries of the source, which are not always exact repeats. Identical values can stand only once.

Test system: 454973-116-R2-J3-PDC spheroids, viability, % test/control
Assay: Anticancer human tumor 454973-116-R2-J3-PDC patient-derived pancreatic carcinoma cell line growth inhibition [GQUAD]
Settings: spheroids with HUVEC and MSC; for viability, T/C: stronger effect = lower value; active = viability on the fitted dose curve at most 10% of control; inactive = the rest
Source text: DNA G-quadruplex Stabilizer Agents in Combinations in Complex Spheroids
A high-throughput screen of multi-cell type tumor spheroids was designed to identify active combinations of DNA G-quadruplex stabilizer agents and targeted small molecules. Complex spheroids include a stromal component modeled by human endothelial cells (HUVEC) and fibroblasts modeled by human mesenchymal stem cells (MSCs). The concentration ranges selected for each drug and investigational agent were based upon clinically achievable concentrations if the clinical Cmax of the agent was known.
Compounds. The drugs and investigational agents: pidnarulex (CX-5461; NSC782164), APTO-253 (NSC789042), BRACO-19 (NSC847499), peposertib (NSC802822), ceralasertib (NSC780249), elimusertib (NSC800525), camonsertib (NSC841442), AZD-1390 (NSC803789), olaparib (NSC753686), talazoparib (NSC767125), ART-558 (NSC835418), sotorasib (NSC818433), MRTX-1133 (NSC836407), SN-38 (NSC673596), topotecan (NSC609699), etoposide (NSC141540), doxorubicin (NSC123127), gemcitabine (NSC613327), 5-fluorouracil (NSC19893), paclitaxel (NSC125973), vemurafenib (NSC761431), panobinostat (NSC761190), R-306465 (JNJ-16241199; NSC773264), adavosertib (NSC754352), TP-3654 (NSC805149), carboplatin (NSC241240), KSQ-4279 (NSC840948), and staurosporine (NSC755774) were obtained from the National Cancer Institute (NCI) Developmental Therapeutics Program Chemical Repository (34). The FDA-approved anticancer drug set is available from the NCI Developmental Therapeutics Program. […] The stock solutions were prepared in dimethyl sulfoxide (DMSO, Sigma-Aldrich, St. Louis, MO, cat. D2650) at 800-fold the tested concentration and stored at -70 degrees C prior to their use. All drugs and investigational agents were tested over a range starting from a high concentration at or near the clinical Cmax and decreasing in half-log increments. If the clinical Cmax for an agent had not been determined, the highest concentration tested was 10 microM.
2.3 Cell Culture. All cells were maintained in an incubator at 37 degrees C and 5% CO2 with 95% humidity. The PDC lines were cultured according to standard operating procedures established by the NCI PDMR. All PDCs were thawed and cultured in Matrigel-coated flasks prepared with a working solution of 1X Ham's F-12 nutrient mix, without supplementation (Invitrogen, cat. 11765054), 100 U/mL penicillin-streptomycin (Invitrogen, cat. 15140122), and 2.5% Matrigel (Corning Inc., cat. 354248) for the first three passages. The 857933-349-R-J2-PDC line was cultured in 6C/Colon 1B media, which includes advanced DMEM/F-12 (Thermo Fisher Scientific, cat. 12634028), 10 mM HEPES (Thermo Fisher Scientific, cat. 15630080), 1X GlutaMAX supplement (Thermo Fisher Scientific, cat. 35050061), 0.1 mg/mL primocin (InvivoGen, cat. ant-pm-2), 10% defined fetal bovine serum, heat inactivated (HyClone Laboratories Inc., cat. SH30070.03HI), 50% L-WRN conditioned media (ATCC, cat. CRL-3276), 1.25 mM N-Acetyl-L-cysteine (Sigma-Aldrich, cat. A9165), 10 mM nicotinamide (Sigma-Aldrich, cat. N0636), 1X B-27 supplement (Thermo Fisher Scientific, cat. 17504044), 1X N-2 supplement (Thermo Fisher Scientific, cat. 17502048), 10 microM Y-27632 dihydrochloride (Tocris Bioscience, cat. 1254), and 50 ng/mL human EGF recombinant protein (Thermo Fisher Scientific, cat. PHG0311). The 485176-168-R4-J1-PDC line was cultured in Panc media, which includes all 6C/Colon 1B media components plus 100 ng/mL human FGF-10 (Thermo Fisher Scientific, cat. 100-26), 500 nM SB-431542 (Selleckchem, cat. S1067), and gastrin (Tocris, cat. 3006).
[…]
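Note: spheroids exposed to compounds for seven days.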

O=C(NO)c1cnc(N2CCN(S(=O)(=O)c3ccc4ccccc4c3)CC2)nc1
6.72 and 6.67 and 6.71: pIC50 (curve of compound)
active: viability, T/C (compound 1 µM) 1.65% and 3.03% and 1.16% | viability, T/C (compound 3.16 µM) 0.25% and 0.22% and 0.12% | viability, T/C (compound 10 µM) 0.25% and 0.95% and 0.29%
inactive: viability, T/C (compound 0.0316 µM) 107% and 108% and 101% | viability, T/C (compound 0.1 µM) 78.2% and 86.9% and 86.3% | viability, T/C (compound 0.316 µM) 27.8% and 30.5% and 22.7%

CC[C@@]1(O)C(=O)OCc2c1cc1n(c2=O)Cc2cc3c(CN(C)C)c(O)ccc3nc2-1
inactive: viability, T/C (compound 0.000999 µM) 104% (2×) and 105% | viability, T/C (compound 0.00316 µM) 108% and 109% and 101% | viability, T/C (compound 0.00999 µM) 97.4% and 95.7% and 98.8% | viability, T/C (compound 0.0316 µM) 63.9% and 62.8% and 59.8% | viability, T/C (compound 0.0999 µM) 18.8% and 18.6% and 21.4% | viability, T/C (compound 0.316 µM) 22% and 21.9% and 23.2%
7.34 and 7.35 and 7.37: pIC50 (curve of compound)

CCCS(=O)(=O)Nc1ccc(F)c(C(=O)c2c[nH]c3ncc(-c4ccc(Cl)cc4)cc23)c1F + Cc1[nH]c2ccc(F)cc2c1-c1nc2c3cccnc3c3ncccc3c2[nH]1
active: viability, T/C (second compound 0.0316 µM, first compound 10 µM) 8.25% | viability, T/C (second compound 0.1 µM, first compound 10 µM) 8.04% | viability, T/C (second compound 0.316 µM, first compound 10 µM) 9.5% | viability, T/C (second compound 1 µM, first compound 10 µM) 8.32%
5.19: pIC50 (curve of first compound, second compound 3.16 µM) | pIC50 (curve of first compound, second compound 10 µM)
5.22: pIC50 (curve of first compound, second compound 0.0316 µM)
5.20: pIC50 (curve of first compound, second compound 0.316 µM) | pIC50 (curve of first compound, second compound 1 µM)
5.25: pIC50 (curve of first compound, second compound 0.1 µM)
inactive: viability, T/C (second compound 0.0316 µM, first compound 0.0316 µM) 114% | viability, T/C (second compound 0.0316 µM, first compound 0.1 µM) 117% | viability, T/C (second compound 0.0316 µM, first compound 0.316 µM) 127% | viability, T/C (second compound 0.0316 µM, first compound 1 µM) 116% | viability, T/C (second compound 0.0316 µM, first compound 3.16 µM) 101% | viability, T/C (second compound 0.1 µM, first compound 0.0316 µM) 112% | viability, T/C (second compound 0.1 µM, first compound 0.1 µM) 118% | viability, T/C (second compound 0.1 µM, first compound 0.316 µM) 113% | viability, T/C (second compound 0.1 µM, first compound 1 µM) 118% | viability, T/C (second compound 0.1 µM, first compound 3.16 µM) 92.7% | viability, T/C (second compound 0.316 µM, first compound 0.0316 µM) 112% | viability, T/C (second compound 0.316 µM, first compound 0.1 µM) 107% | viability, T/C (second compound 0.316 µM, first compound 0.316 µM) 102% | viability, T/C (second compound 0.316 µM, first compound 1 µM) 113% | viability, T/C (second compound 0.316 µM, first compound 3.16 µM) 113% | viability, T/C (second compound 1 µM, first compound 0.0316 µM) 104% | viability, T/C (second compound 1 µM, first compound 0.1 µM) 102% | viability, T/C (second compound 1 µM, first compound 0.316 µM) 114% | viability, T/C (second compound 1 µM, first compound 1 µM) 128% | viability, T/C (second compound 1 µM, first compound 3.16 µM) 115% | viability, T/C (second compound 3.16 µM, first compound 0.0316 µM) 109% | viability, T/C (second compound 3.16 µM, first compound 0.1 µM) 115% | viability, T/C (second compound 3.16 µM, first compound 0.316 µM) 114% | viability, T/C (second compound 3.16 µM, first compound 1 µM) 98.6% | viability, T/C (second compound 3.16 µM, first compound 3.16 µM) 112% | viability, T/C (second compound 3.16 µM, first compound 10 µM) 13.3% | viability, T/C (second compound 10 µM, first compound 0.0316 µM) 107% | viability, T/C (second compound 10 µM, first compound 0.1 µM) 101% | viability, T/C (second compound 10 µM, first compound 0.316 µM) 116% | viability, T/C (second compound 10 µM, first compound 1 µM) 110% | viability, T/C (second compound 10 µM, first compound 3.16 µM) 106% | viability, T/C (second compound 10 µM, first compound 10 µM) 14.4%

COc1ccc([C@@H](O)c2cc(-c3ncnc4cc(N5CCOCC5)ccc34)c(F)cc2Cl)nn1
< 5.00 and 5.11: pIC50 (curve of compound)
inactive: viability, T/C (compound 0.0316 µM) 110% and 102% and 111% | viability, T/C (compound 0.1 µM) 94.2% and 93% and 93.8% | viability, T/C (compound 0.316 µM) 103% and 91.3% and 98.6% | viability, T/C (compound 1 µM) 89% and 93.2% and 84% | viability, T/C (compound 3.16 µM) 76.2% and 71.4% and 65% | viability, T/C (compound 10 µM) 50.3% and 57.7% and 45.4%
